In patent publication US20250170101A1, “MONOACYLGLYCEROL LIPASE INHIBITORS AND USE THEREOF FOR THE TREATMENT AND MANAGEMENT OF PAIN AND RELATED CONDITIONS” (Psy Therapeutics, Inc., priority 2021, published 2025):
pIC50: −log10 of the molar value. Values belong to the compound of their own block, whether it stands above or below them.

Tests used:
[1] = tested on: Acute Post-Operative Pain (Brennan) mice model; test: Acute Post-Operative Pain (Brennan) mice model, Example 26; format: in vivo, Mus Musculus C57BL/6; settings: IP; for mechanical allodynia (Threshold, g) vs Vehicle control: at 30, 60 & 90 min
Source text: The aim of this experiment was to evaluate effect of the test compounds Compound 74 and JZL-184 in Acute Post-Operative Pain (Brennan) mice model. • Mouse model: Mus Musculus & C57BL/6, male, 6-8 weeks • End points: mechanical allodynia and brain 2-AG (optional)
(§1) • Animals was anaesthetized under Isoflorane anesthesia. • Using aseptic conditions, prepared the plantar aspect of left hind paw with a 10% povidone-iodine solution and place the paw through a hole in a sterile cloth drape. Made a 0.5-cm longitudinal incision through skin and fascia of the paw with a no. 11 scalpel blade, beginning 0.2 cm from the proximal edge of the heel and extending toward the digits. • Elevated the underlying muscle with small curved forceps and incised longitudinally with the scalpel blade, keeping the muscle origin and insertion intact. • After homeostasis with gentle pressure, apposed the skin with 5-0 slik sutures. Cover the wound site.

[2] = Plasma and brain concentrations after single intraperitoneal administration, Examples 23 and 24; format: in vivo, male C57BL/6 mice; settings: 0.5 h
Description: (§2) This experiment was performed to determine plasma pharmacokinetics and estimate 2-AG levels in male C57BL/6 mice brain following a single intraperitoneal administration of Compound-74 (Dose: 5, 15, 50 and 150 mg/kg). The experiment was repeated at 150 mg/kg on 3 separate test dates to obtain the data shown in FIG. 1A (plasma and brain concentration of Compound 74 30 minutes after IP injection), and on the first and third test dates to obtain the data shown in FIG. 1B (brain concentration of 2-AG30 minutes after IP injection of Compound 74). • Compound 74, Molecular Wt.: 405.46 (Freebase), % Purity: Considered 100%. • Formulation: DMSO • Dose: 5, 15, 50 and 150 mg/kg • Dose volume: 2 mL/kg • Feeding regimen: freely fed • Groups:
Study Design: A total of thirty male mice were used into the study and divided in to five groups with six mice in each group (n=6 mice/group/treatment design). Animals in Group 1 to Group 4 were administered intraperitoneally with Compound 74 solution formulation at 5, 15, 50 and 150 mg/kg dose, respectively. Animals in Group 5 were administered intraperitoneally with vehicle at 2 mL/kg dose. Blood and brain samples were collected at 0.5 h post dose. Mice were euthanized by cervical dislocation and brain samples were dissected rapidly and snap frozen in liquid nitrogen, weighed and homogenized in 2 mL of acetonitrile containing 2-AGd5. Blood samples were centrifuged at 4000 rpm for 10 minutes at 4° C. Plasma was harvested and separated in pre-labeled tubes. All samples were stored below −70° C. until bioanalysis.
Analysis: Brain samples were processed for 2-AG estimation. 2-AG levels were the detected values. Plasma concentrations were determined by fit for purpose LC-MS/MS method. LLOQ: 5.09 ng/mL (Plasma and brain)
This experiment was performed to determine plasma pharmacokinetics and estimate 2-AG levels in male C57BL/6 mice brain following a single intraperitoneal administration of Compound-473 (Dose: 20 mg/kg). • Compound 473, Molecular Wt.: 463.41 (Freebase), % Purity: >98%. • Formulation: DMSO • Dose: 20 mg/kg • Dose volume: 10 mL/kg • Feeding regimen: Food and water ad libitum • Groups:
Study Design: A total of twelve C57BL/6 male mice were used in this study. Six animals were administered intraperitoneally with solution formulation of PSY-05-00473-002 at 20 mg/kg dose. Six animals were administered vehicle (5% NMP, 5% Solutol HS15 and 90% Normal saline) intraperitoneally at 10 mL/kg dose volume. Blood samples (approximately 60 μL) were collected under light isoflurane anesthesia from a set of six mice at 0.5 h. Plasma was harvested by centrifugation of blood and stored at −70±10° C. until analysis. After blood collection, mice were euthanized by cervical dislocation and brain samples were dissected rapidly and snapped frozen in liquid nitrogen and stored at −80. To homogenize, removed brain samples from the freezer, were divided into two equal hemispheres and weighed while still in frozen condition, and begun homogenization/extraction procedure without allowing the brain samples to thaw. One part is used for PK estimation and the other part is used for 2-AG estimation.
Analysis: For PK estimation, brain samples were homogenized in 2 volumes of PBS of brain weight. Total homogenate volume was three times of the brain weight. For 2-AG estimation, the frozen brain samples were homogenized in 2 mL acetonitrile containing 2-AGd5 (8.88 nmoles) will be incubated overnight at −20° C. to precipitate proteins. Blood samples were centrifuged at 10000 rpm for 10 minutes at 4° C. All samples were stored below −70° C. until bioanalysis. Plasma and brain homogenate samples were quantified by fit-for-purpose LC-MS/MS method (LLOQ: 1.02 ng/mL for plasma and 2.03 ng/mL for brain).

[3] = tested on: Post-Operative Pain (Brennan) mouse model; test: Chronic treatment in Post-Operative Pain (Brennan) mouse model, Example 27; format: in vivo, Mus Musculus C57BL/6; settings: IP
Source text: The aim of this experiment was to evaluate effect of the test compounds Compound 74 and JZL-184 in after Chronic treatment in a Post-Operative Pain (Brennan) mouse model. • Mouse model: Mus Musculus & C57BL/6, male, 6-8 weeks • End points: mechanical allodynia and body weight
as §1

2-AG levels in brain = test: Estimation of 2-AG in mouse brain after single intraperitoneal administration, Examples 23 and 24; format: in vivo, male C57BL/6 mice; settings: single IP
Description: as §2
Study Design: A total of thirty male mice were used into the study and divided in to five groups with six mice in each group (n=6 mice/group/treatment design). Animals in Group 1 to Group 4 were administered intraperitoneally with Compound 74 solution formulation at 5, 15, 50 and 150 mg/kg dose, respectively. Animals in Group 5 were administered intraperitoneally with vehicle at 2 mL/kg dose. Blood and brain samples were collected at 0.5 h post dose. […]
Analysis: Brain samples were processed for 2-AG estimation. 2-AG levels were the detected values. Plasma concentrations were determined by fit for purpose LC-MS/MS method. […]

MAGL enzyme = target: T1, MAGL enzyme (Homo sapiens, UniProt Q99685); test: MAGL reversible inhibition assay (washout), Example 22; format: biochemical; set-up: % MAGL activity returning after washout: concentration or dose not given beside the values; settings: for degree to which MAGL enzymatic activity returned following washout of test compounds: pre-washout compound concentration 1 μM; for % MAGL activity returning after washout: relative to control (no inhibitor before washout), immediately following 30 minute washout
T1 sequence (Q99685 1-303): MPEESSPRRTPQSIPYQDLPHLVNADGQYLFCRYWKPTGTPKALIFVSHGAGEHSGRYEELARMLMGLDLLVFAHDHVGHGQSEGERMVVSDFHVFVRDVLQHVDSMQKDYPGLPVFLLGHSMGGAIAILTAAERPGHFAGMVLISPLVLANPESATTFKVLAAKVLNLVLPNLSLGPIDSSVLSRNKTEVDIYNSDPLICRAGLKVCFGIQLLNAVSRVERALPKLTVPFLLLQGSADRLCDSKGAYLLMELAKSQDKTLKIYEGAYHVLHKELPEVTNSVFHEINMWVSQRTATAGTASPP
Description: The reversible mechanism of MAGL inhibition of a test compound of Formula (I) can be determined. Flag-tagged MAGL enzyme will be immobilized on anti-Flag beads. Immobilized enzyme will be incubated+/−inhibitor at a dose that produces complete inhibition. Colorimetric substrate (4-NPA) will be added and the reaction monitored on a plate reader for 30 minutes to verify complete inhibition. Immobilized enzyme will then be washed thoroughly to remove the inhibitor, and fresh substrate will be added. The reaction will be monitored for an additional 30 minutes; returning enzymatic activity will indicate reversibility of inhibition. […]
For some test compounds, % activity returning after washout may be less than 100%/if complete compound unbinding takes longer than 30 minutes.

human recombinant FAAH = target: T2, human recombinant FAAH (Homo sapiens, UniProt O00519); test: FAAH counter screen (Cayman FAAH Inhibitor Screening Assay Kit), Example 21; format: biochemical
T2 construct: purchased Cayman kit Item No. 10005196; FAAH enzyme 700302
T2 sequence (O00519 1-579): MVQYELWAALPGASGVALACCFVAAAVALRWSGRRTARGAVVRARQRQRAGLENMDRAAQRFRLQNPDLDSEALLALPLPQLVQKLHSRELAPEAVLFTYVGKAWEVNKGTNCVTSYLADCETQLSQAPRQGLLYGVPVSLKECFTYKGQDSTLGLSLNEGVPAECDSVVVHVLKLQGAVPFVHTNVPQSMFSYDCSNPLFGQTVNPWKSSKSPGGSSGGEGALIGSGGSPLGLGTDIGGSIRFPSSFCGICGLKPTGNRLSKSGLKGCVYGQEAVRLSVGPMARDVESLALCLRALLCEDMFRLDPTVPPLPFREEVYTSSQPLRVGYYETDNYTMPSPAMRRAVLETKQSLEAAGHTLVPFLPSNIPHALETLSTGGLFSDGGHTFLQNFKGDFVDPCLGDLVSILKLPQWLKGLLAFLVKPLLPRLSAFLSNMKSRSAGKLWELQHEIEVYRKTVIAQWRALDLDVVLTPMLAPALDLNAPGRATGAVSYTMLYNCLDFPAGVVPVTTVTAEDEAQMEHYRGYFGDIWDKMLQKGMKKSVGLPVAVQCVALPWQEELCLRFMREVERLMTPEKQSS
Description: Comparative compound potency at FAAH can be obtained with the following assay.
MAGL inhibitor compounds were also counter-screened for FAAH inhibition potency using the following assay. Assessment of FAAH inhibition was performed using Fatty Acid Amide Hydrolase Inhibitor Screening Assay Kit (Cayman Item No. 10005196) following manufacture's instruction with some modifications. The kit utilizes human recombinant FAAH and the fluorescent substrate, AMC Arachidonoyl amide (AAMCA). 5 μL of assay buffer (125 mM Tris, pH 9.0, 1 mM EDTA, i.e. ethylenediaminetetraacetic acid) was added to a 384-well black plate (Corning, 3573). Test compounds and control inhibitor JZL-195 (Cayman Chemical, 13668) were tested in 10-concentration IC50 mode with 3-fold serial dilution at a starting concentration of 100 μM and 10 μM, respectively. 300 nL or 30 nL of test compounds were delivered into a 384-well black plate (Corning, 3573) using a Labcyte Echo, followed by addition of 15 μL of FAAH enzyme (Cayman, 700302) in assay buffer. After a 5-minute pre-incubation at room temperature, 10 μL of AAMCA was added in assay buffer to start the reaction. Final concentration of FAAH enzyme is not specified and AAMCA substrate was used at the 20 uM. After these dilutions, the final concentration of the test compounds ranged from 100 μM to 5.08 nM or 10 μM down to 0.508 nM. The reaction was allowed to progress for 60 minutes, while the plate was read on an Envision plate reader at an Ex/Em of 350/460 nm with readings every minute. The data was analyzed in Microsoft Excel, using the slope between 30 and 59 minutes. The average of the no-enzyme wells (background) was subtracted from the data. The background-subtracted slope data was converted to % activity using the average of wells with enzyme and DMSO vehicle. IC50 values were calculated using GraphPad software (Sigmoidal dose response, variable slope equation).
Compounds listed in Table D2 were tested in the FAAH Counterscreen of Example 21

[4] = Method A: starting concentration of 100 μM

SMILES: Cc1cc(C2CC3(C2)CN(C(=O)c2cc(O)ccc2F)C3)n(-c2ccccc2C)n1 [Compound 74, (2-fluoro-5-hydroxyphenyl)(6-(3-methyl-1-(o-tolyl)-1H-pyrazol-5-yl)-2-azaspiro[3.3]heptan-2-yl)methanone]
mechanical allodynia (Threshold, g) vs Vehicle control ([1]; 50 & 150 mg/kg): significant decrease in mechanical allodynia
Brain Plama Ratio (Kp) range ([2]; IP 5 mg/kg): 0.51-0.68
Plasma concentration range ([2]; IP 5 mg/kg): 12 to 186 ng/mL
Brain Plama Ratio (Kp) range ([2]; IP 15 mg/kg): 0.16-0.44
Brain concentration range ([2]; IP 15 mg/kg): 25 to 67 ng/g
Plasma concentration range ([2]; IP 15 mg/kg): 70 to 414 ng/mL
Brain Plama Ratio (Kp) range ([2]; IP 50 mg/kg): 0.06-0.08
Plasma concentration range ([2]; IP 50 mg/kg): 447 to 14914 ng/mL
Brain Plama Ratio (Kp) range ([2]; IP 150 mg/kg): 0.07-0.20
Brain concentration range ([2]; IP 150 mg/kg): 2412 to 12111 ng/g
Plasma concentration range ([2]; IP 150 mg/kg): 34920 to 70256 ng/mL
mechanical allodynia (Threshold, g) vs Vehicle control ([3]; 50 mg/kg, QD×8 days): significant decrease in mechanical allodynia
mechanical allodynia (Threshold, g) vs Vehicle control ([3]; 50 & 150 mg/kg, single dose): significant decrease in mechanical allodynia
levels of 2-AG compared to baseline (vehicle treatment) (2-AG levels in brain; 5 and 15 mg/kg dose): elevated slightly
levels of 2-AG compared to baseline (vehicle treatment) (2-AG levels in brain; 50 and 150 mg/kg dose groups): significant increase
degree to which MAGL enzymatic activity returned following washout of test compounds (MAGL enzyme): 162
% MAGL activity returning after washout (MAGL enzyme): >50%

pIC50 (human recombinant FAAH; Method B: starting concentration of 10 μM): < 5.00
degree to which MAGL enzymatic activity returned following washout of test compounds (MAGL enzyme): 47
% MAGL activity returning after washout (MAGL enzyme): <50%
SMILES: O=C(c1cc(O)ccc1F)N1CC2(CC(n3cc(C4CC4)c(-c4ccccc4F)n3)C2)C1 [Compound 493]

SMILES: O=C(Oc1ccc([N+](=O)[O-])cc1)N1CCC(C(O)(c2ccc3c(c2)OCO3)c2ccc3c(c2)OCO3)CC1 [JZL-184, reference compound]
mechanical allodynia (Threshold, g) vs Vehicle control ([1]; 40 mg/kg): significant decrease in mechanical allodynia
Clinical observation ([1]; 40 mg/kg, post IP administration): mild hypolocomotion
mechanical allodynia (Threshold, g) vs Vehicle control ([3]; 40 mg/kg, single dose): significant decrease in mechanical allodynia
degree to which MAGL enzymatic activity returned following washout of test compounds (MAGL enzyme): complete lack of return of MAGL enzymatic activity
% MAGL activity returning after washout (MAGL enzyme): <1%

SMILES: O=C(Oc1ccc([N+](=O)[O-])cc1)N1CCN(Cc2cccc(Oc3ccccc3)c2)CC1 [reference compound]
pIC50 (human recombinant FAAH; [4]): 6.34

pIC50 (human recombinant FAAH; [4]): 7.85
SMILES: O=C(Nc1cccnc1)N1CCC(Cc2cccc(Oc3ccc(C(F)(F)F)cn3)c2)CC1 [reference compound]
